According to patent publication US12233081B2, “Hygromycin a compounds and methods of treating spirochete diseases” (priority 2018, dated 2025):
Read-outs that look alike come from different tables or passages of the source.

Assays:
gut microbiome [1] = conditions: mouse, in vivo, 100 mg/kg
gut microbiome [2] = test: gut microbiome 16S rRNA sequencing of stool of infected, treated mice; conditions: IP 100 mg/kg every 12 hours for 5 days

SMILES: CC1(C)S[C@@H]2[C@H](NC(=O)[C@H](N)c3ccc(O)cc3)C(=O)N2[C@H]1C(=O)O [Amox, amoxicillin]
- Camobacteriaceae change in percent relative abundance (gut microbiome [1]; C3H, ip, 5 days): 0.000%
- Chitinophagaceae change in percent relative abundance (gut microbiome [1]; C3H, ip, 5 days): 0.000%
- Christensenellaceae change in percent relative abundance (gut microbiome [1]; C3H, ip, 5 days): 0.000%
- Clostridiaceae change in percent relative abundance (gut microbiome [1]; C3H, ip, 5 days): 0.211%
- Clostridiales change in percent relative abundance (gut microbiome [1]; C3H, ip, 5 days): −0.037%
- Clostridiales family xi. incertae sedis change in percent relative abundance (gut microbiome [1]; C3H, ip, 5 days): −0.010%
- Clostridiales family xiii. incertae sedis change in percent relative abundance (gut microbiome [1]; C3H, ip, 5 days): −0.007%
- Coriobacteriaceae change in percent relative abundance (gut microbiome [1]; C3H, ip, 5 days): 0.099%
- Acholeplasmataceae change in percent relative abundance (gut microbiome [1]; ip): 0.005%
- Aerococcaceae change in percent relative abundance (gut microbiome [1]; ip): 0.000%
- Anaerolineaceae change in percent relative abundance (gut microbiome [1]; ip): 0.000%
- Anaeroplasmataceae change in percent relative abundance (gut microbiome [1]; ip): −0.132%
- Anaplasmataceae change in percent relative abundance (gut microbiome [1]; ip): 0.000%
- Aspergillaceae change in percent relative abundance (gut microbiome [1]; ip): 0.000%
- Asteraceae change in percent relative abundance (gut microbiome [1]; ip): 0.000%
- Bacillaceae change in percent relative abundance (gut microbiome [1]; ip): −0.011%
- Bacillales change in percent relative abundance (gut microbiome [1]; ip): −0.031%
- Bacteroidaceae change in percent relative abundance (gut microbiome [1]; ip): 0.684%
- Bifidobacteriaceae change in percent relative abundance (gut microbiome [1]; ip): 0.000%
- Candidatus saccharibacteria change in percent relative abundance (gut microbiome [1]; ip): −0.018%
- Corynebacteriaceae change in percent relative abundance (gut microbiome [1]; ip): 0.000%
- Cytophagaceae change in percent relative abundance (gut microbiome [1]; ip): 0.001%
- Deferribacteraceae change in percent relative abundance (gut microbiome [1]; ip): 0.080%
- Defluviitaleaceae change in percent relative abundance (gut microbiome [1]; ip): 0.000%
- Desulfobacteraceae change in percent relative abundance (gut microbiome [1]; ip): 0.000%
- Enterobacteriaceae change in percent relative abundance (gut microbiome [1]; ip): −0.243%
- Enterococcaceae change in percent relative abundance (gut microbiome [1]; ip): 0.052%
- Erysipelotrichaceae change in percent relative abundance (gut microbiome [1]; ip): −0.193%
- Eubacteriaceae change in percent relative abundance (gut microbiome [1]; ip): −1.475%
- Fabaceae change in percent relative abundance (gut microbiome [1]; ip): 0.000%
- Flavobacteriaceae change in percent relative abundance (gut microbiome [1]; ip): 0.000%
- Fusobacteriaceae change in percent relative abundance (gut microbiome [1]; ip): 0.000%
- Gammaproteobacteria change in percent relative abundance (gut microbiome [1]; ip): 0.003%
- Gloeobacteraceae change in percent relative abundance (gut microbiome [1]; ip): 0.055%
- Gracilibacteraceae change in percent relative abundance (gut microbiome [1]; ip): −0.026%
- Halomonadaceae change in percent relative abundance (gut microbiome [1]; ip): 0.000%
- Hylidae change in percent relative abundance (gut microbiome [1]; ip): 0.000%
- Kopriimonadaceae change in percent relative abundance (gut microbiome [1]; ip): 0.000%
- Lachnospiraceae change in percent relative abundance (gut microbiome [1]; ip): −1.425%
- Lactobacillaceae change in percent relative abundance (gut microbiome [1]; ip): 1.726%
- Leuconostocaceae change in percent relative abundance (gut microbiome [1]; ip): 0.000%
- Methylobacteriaceae change in percent relative abundance (gut microbiome [1]; ip): 0.000%
- Microbacteriaceae change in percent relative abundance (gut microbiome [1]; ip): 0.000%
- Mucoraceae change in percent relative abundance (gut microbiome [1]; ip): 0.000%
- Nostocaceae change in percent relative abundance (gut microbiome [1]; ip): 0.000%
- Onagraceae change in percent relative abundance (gut microbiome [1]; ip): 0.000%
- Oscillatoriales change in percent relative abundance (gut microbiome [1]; ip): 0.000%
- Oscillospiraceae change in percent relative abundance (gut microbiome [1]; ip): 0.001%
- Paenibacillaceae change in percent relative abundance (gut microbiome [1]; ip): −0.001%
- Pasteurellaceae change in percent relative abundance (gut microbiome [1]; ip): 0.000%
- Pelobacteraceae change in percent relative abundance (gut microbiome [1]; ip): 0.000%
- Peptococcaceae change in percent relative abundance (gut microbiome [1]; ip): −0.325%
- Peptoniphilaceae change in percent relative abundance (gut microbiome [1]; ip): 0.000%
- Peptostreptococcaceae change in percent relative abundance (gut microbiome [1]; ip): −0.131%
- Physalacriaceae change in percent relative abundance (gut microbiome [1]; ip): 0.000%
- Poaceae change in percent relative abundance (gut microbiome [1]; ip): 0.024%
- Polyangiaceae change in percent relative abundance (gut microbiome [1]; ip): 0.000%
- Porphyromonadaceae change in percent relative abundance (gut microbiome [1]; ip): 10.471%
- Prevotellaceae change in percent relative abundance (gut microbiome [1]; ip): 0.080%
- Pseudomonadaceae change in percent relative abundance (gut microbiome [1]; ip): 0.000%
- Rhizobiaceae change in percent relative abundance (gut microbiome [1]; ip): 0.000%
- Rhodobacteraceae change in percent relative abundance (gut microbiome [1]; ip): 0.000%
- Rikenellaceae change in percent relative abundance (gut microbiome [1]; ip): −3.443%
- Ruminococcaceae change in percent relative abundance (gut microbiome [1]; ip): −0.093%
- Sphingomonadaceae change in percent relative abundance (gut microbiome [1]; ip): 0.000%
- Spirochaetaceae change in percent relative abundance (gut microbiome [1]; ip): −0.032%
- Spiroplasmataceae change in percent relative abundance (gut microbiome [1]; ip): −0.059%
- Staphylococcaceae change in percent relative abundance (gut microbiome [1]; ip): −0.001%
- Streptococcaceae change in percent relative abundance (gut microbiome [1]; ip): −7.086%
- Thermoanaerobacteraceae change in percent relative abundance (gut microbiome [1]; ip): −0.008%
- Veillonellaceae change in percent relative abundance (gut microbiome [1]; ip): 0.000%
- Verrucomicrobiaceae change in percent relative abundance (gut microbiome [1]; ip): 1.296%
- Xanthomonadaceae change in percent relative abundance (gut microbiome [1]; ip): 0.001%
- Acholeplasmataceae change in percent relative abundance (gut microbiome [1]; po): 0.095%
- Candidatus saccharibacteria change in percent relative abundance (gut microbiome [1]; po): −0.022%
- Brucellaceae change in percent relative abundance (gut microbiome [2]): 0.000%
